Each molecule was assayed against human TYK2 (JH2domain-pseudokinase) (Homo sapiens (Human), UniProt P29597) (assay: TYK2 JH2 Domain Binding Assay (KINOMEscan, DiscoveRx)). Conditions: 11-point dilution, duplicate.
How it was run: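 TYK2 JH2 (G556–D888)–NFkB DBD fusion, DNA-tagged, from HEK293 extracts (<0.1 nM) competed against immobilised biotinylated ligand for 1 h at room temperature, 0.9% DMSO. Bead-retained kinase quantified by qPCR; Kd from 11-point 3-fold series (top 30,000 nM, duplicate), Hill fit with slope −1.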

Sequence of human TYK2 (JH2domain-pseudokinase) (P29597 556-888): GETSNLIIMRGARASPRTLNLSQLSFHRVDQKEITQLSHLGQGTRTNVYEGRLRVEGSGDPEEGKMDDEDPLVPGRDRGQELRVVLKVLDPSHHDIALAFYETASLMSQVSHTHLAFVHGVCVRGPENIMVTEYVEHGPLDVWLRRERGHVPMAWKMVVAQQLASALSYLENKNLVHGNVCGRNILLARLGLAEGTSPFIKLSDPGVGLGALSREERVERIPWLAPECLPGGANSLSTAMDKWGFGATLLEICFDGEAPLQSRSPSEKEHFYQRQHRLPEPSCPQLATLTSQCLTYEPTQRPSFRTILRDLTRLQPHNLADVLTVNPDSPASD

`Cc1nc2c(Nc3ccc(-c4cc(C)n(C)n4)cc3S(C)(=O)=O)cc(Nc3cc4n(n3)CCOC4)nc2[nH]1` [I-514, N5-(6,7-dihydro-4H-pyrazolo[5,1-c][1,4]oxazin-2-yl)-N7-(4-(1,5-dimethyl-1H-pyrazol-3-yl)-2-(methylsulfonyl)phenyl)-2-methyl-3H-imidazo[4,5-b]pyridine-5,7-diamine] and `Cc1cc(-c2ccc(Nc3cc(Nc4cc5n(n4)CCOC5)nc4[nH]c(C(F)F)nc34)c(S(C)(=O)=O)c2)nn1C` [I-526] cannot be ordered by Kd: < 0.1 nM for the first, < 0.1 nM for the second.

First: CS(=O)(=O)c1cc([C@H]2CCCCO2)ccc1Nc1cc(Nc2cc3n(n2)CCOC3)nc2[nH]c(C(F)F)nc12 [I-515, (R)-2-(difluoromethyl)-N5-(6,7-dihydro-4H-pyrazolo[5,1-c][1,4]oxazin-2-yl)-N7-(2-(methylsulfonyl)-4-(tetrahydro-2H-pyran-2-yl)phenyl)-3H-imidazo[4,5-b]pyridine-5,7-diamine]
Second: CS(=O)(=O)c1cc([C@@H]2CCCCO2)ccc1Nc1cc(Nc2cc3n(n2)CCOC3)nc2[nH]c(C(F)F)nc12 [I-516, (S)-2-(difluoromethyl)-N5-(6,7-dihydro-4H-pyrazolo[5,1-c][1,4]oxazin-2-yl)-N7-(2-(methylsulfonyl)-4-(tetrahydro-2H-pyran-2-yl)phenyl)-3H-imidazo[4,5-b]pyridine-5,7-diamine]
The Kd of the first is lower: < 0.1 nM for the first, 0.1 to 0.5 nM for the second.

First: CS(=O)(=O)c1cc([C@H]2CCCCO2)ccc1Nc1cc(Nc2cccc(C(F)(F)F)n2)nc2[nH]c(C(F)F)nc12 [I-517, (R)-2-(difluoromethyl)-N7-(2-(methylsulfonyl)-4-(tetrahydro-2H-pyran-2-yl)phenyl)-N5-(6-(trifluoromethyl)pyridin-2-yl)-3H-imidazo[4,5-b]pyridine-5,7-diamine]
Second: CS(=O)(=O)c1cc([C@@H]2CCCCO2)ccc1Nc1cc(Nc2cccc(C(F)(F)F)n2)nc2[nH]c(C(F)F)nc12 [I-518, (S)-2-(difluoromethyl)-N7-(2-(methylsulfonyl)-4-(tetrahydro-2H-pyran-2-yl)phenyl)-N5-(6-(trifluoromethyl)pyridin-2-yl)-3H-imidazo[4,5-b]pyridine-5,7-diamine]
The Kd of the first is lower: 0.5 to 1 nM for the first, 1 to 10 nM for the second.

`Cc1cc(Nc2cc(Nc3ccc(-c4cc(C)n(C)n4)cc3S(C)(=O)=O)c3nc(C(F)F)[nH]c3n2)nc(C)n1` [I-519, 2-(difluoromethyl)-N7-(4-(1,5-dimethyl-1H-pyrazol-3-yl)-2-(methylsulfonyl)phenyl)-N5-(2,6-dimethylpyrimidin-4-yl)-3H-imidazo[4,5-b]pyridine-5,7-diamine] and `Cc1cc(Nc2cc(Nc3ccc(-c4ccn(C5CC5)n4)cc3S(C)(=O)=O)c3nc(C(F)F)[nH]c3n2)nc(C)n1` [I-527] fall in the same range of Kd: 0.1 to 0.5 nM for the first, 0.1 to 0.5 nM for the second.

Compared with `COCc1ccc(Nc2cc(Nc3ccccc3S(C)(=O)=O)c3nc(C(F)F)[nH]c3n2)nn1` [I-520], `COCc1ccc(Nc2cc(Nc3ccccc3S(C)(=O)=O)c3nc(C)[nH]c3n2)nn1` [I-521] is lower in Kd: 0.1 to 0.5 nM for the first, < 0.1 nM for the second.

First: CS(=O)(=O)c1cc(-c2ccn(C3CCOCC3)n2)ccc1Nc1cc(NC(=O)C2CC2)nc2[nH]c(C(F)F)nc12 [I-522]
Second: Cc1nc2c(Nc3ccc(-c4ccn(C5CCOCC5)n4)cc3S(C)(=O)=O)cc(NC(=O)C3CC3)nc2[nH]1 [I-523]
The Kd of the first is higher: 0.1 to 0.5 nM for the first, < 0.1 nM for the second.

First: CCOc1ccc(Nc2cc(Nc3ccccc3S(C)(=O)=O)c3nc(C(F)F)[nH]c3n2)nc1C#N [I-524]
Second: CCOc1ccc(Nc2cc(Nc3ccccc3S(C)(=O)=O)c3nc(C)[nH]c3n2)nc1C#N [I-525]
The Kd of the first is higher: 0.1 to 0.5 nM for the first, < 0.1 nM for the second. The second binds more tightly here.

First: Cc1cc(Nc2cc(Nc3ccc(-c4ccn(C5CC5)n4)cc3S(C)(=O)=O)c3nc(C)[nH]c3n2)nc(C)n1 [I-528]
Second: Cc1cc(Nc2cc(Nc3ccc([C@H]4CCCCO4)cc3S(C)(=O)=O)c3nc(C)[nH]c3n2)nc(C)n1 [I-529]
The Kd of the first is higher: 0.1 to 0.5 nM for the first, < 0.1 nM for the second. The second binds more tightly here.

Compared with `Cc1cc(Nc2cc(Nc3ccc([C@@H]4CCCCO4)cc3S(C)(=O)=O)c3nc(C)[nH]c3n2)nc(C)n1` [I-530], `Cc1nc2c(Nc3ccc(C4CCCO4)cc3S(C)(=O)=O)cc(Nc3cccc(C#N)n3)nc2[nH]1` (centres unmarked) [I-544, 6-((2-methyl-7-((2-(methylsulfonyl)-4-(tetrahydrofuran-2-yl)phenyl)amino)-3H-imidazo[4,5-b]pyridin-5-yl)amino)picolinonitrile] is higher in Kd: < 0.1 nM for the first, 0.1 to 0.5 nM for the second.

`CS(=O)(=O)c1ccccc1Nc1cc(Nc2ccc3c(n2)CCOC3)nc2[nH]c(C(F)F)nc12` [I-531] and `Cc1nc2c(Nc3ccccc3S(C)(=O)=O)cc(Nc3ccc4c(n3)CCOC4)nc2[nH]1` [I-532] cannot be ordered by Kd: < 0.1 nM for the first, < 0.1 nM for the second.

`Cc1c(-c2ccc(Nc3cc(Nc4ccc(C(C)C)c(C#N)n4)nc4[nH]c(C(F)F)nc34)c(S(C)(=O)=O)c2)cnn1C` [I-533] and `CS(=O)(=O)c1cc(F)ccc1Nc1cc(Nc2cccc(C#N)n2)nc2[nH]c(C(F)F)nc12` [I-552, 6-((2-(difluoromethyl)-7-((4-fluoro-2-(methylsulfonyl)phenyl)amino)-3H-imidazo[4,5-b]pyridin-5-yl)amino)picolinonitrile] fall in the same range of Kd: 0.1 to 0.5 nM for the first, 0.1 to 0.5 nM for the second.

First: Cc1cc(C)c(-c2ccc(Nc3cc(NC(=O)C4CC4)nc4[nH]c(C(F)F)nc34)c(S(C)(=O)=O)c2)o1 [I-534]
Second: Cc1nc(-c2ccc(Nc3cc(NC(=O)C4CC4)nc4[nH]c(C(F)F)nc34)c(S(C)(=O)=O)c2)cs1 [I-545, N-(2-(difluoromethyl)-7-((2-(methylsulfonyl)-4-(2-methylthiazol-4-yl)phenyl)amino)-3H-imidazo[4,5-b]pyridin-5-yl)cyclopropanecarboxamide]
The Kd of the first is higher: 1 to 10 nM for the first, 0.1 to 0.5 nM for the second. The second binds more tightly here.

`Cc1nc2c(Nc3ccc(C4CCC(C)(C)CO4)cc3S(C)(=O)=O)cc(NC(=O)C3CC3)nc2[nH]1` (centres unmarked) [I-536, N-(7-((4-(5,5-dimethyltetrahydro-2H-pyran-2-yl)-2-(methylsulfonyl)phenyl)amino)-2-methyl-3H-imidazo[4,5-b]pyridin-5-yl)cyclopropanecarboxamide] and `Cc1nc2c(Nc3ccc([C@@H]4CCC(C)(C)CO4)cc3S(C)(=O)=O)cc(NC(=O)C3CC3)nc2[nH]1` [I-550, (S)—N-(7-((4-(5,5-dimethyltetrahydro-2H-pyran-2-yl)-2-(methylsulfonyl)phenyl)amino)-2-methyl-3H-imidazo[4,5-b]pyridin-5-yl)cyclopropanecarboxamide] cannot be ordered by Kd: < 0.1 nM for the first, < 0.1 nM for the second.

First: Cc1c(-c2ccc(Nc3cc(NC(=O)C4CC4)nc4[nH]c(C(F)F)nc34)c(S(C)(=O)=O)c2)cnn1C1CC1 [I-537, N-(7-((4-(1-cyclopropyl-5-methyl-1H-pyrazol-4-yl)-2-(methylsulfonyl)phenyl)amino)-2-(difluoromethyl)-3H-imidazo[4,5-b]pyridin-5-yl)cyclopropanecarboxamide]
Second: Cc1nc2c(Nc3ccc([C@H]4CCC(C)(C)CO4)cc3S(C)(=O)=O)cc(NC(=O)C3CC3)nc2[nH]1 [I-551, (R)—N-(7-((4-(5,5-dimethyltetrahydro-2H-pyran-2-yl)-2-(methylsulfonyl)phenyl)amino)-2-methyl-3H-imidazo[4,5-b]pyridin-5-yl)cyclopropanecarboxamide]
The Kd of the first is lower: < 0.1 nM for the first, 0.5 to 1 nM for the second. The first binds more tightly here.

`COc1c(Nc2cc(Nc3cccc(C#N)n3)nc3[nH]c(C(F)F)nc23)cccc1-c1ncnn1C` [I-538] and `COc1c(Nc2cc(Nc3cccc(C#N)n3)nc3[nH]c(C)nc23)cccc1-c1ncnn1C` [I-539, 6-((7-((2-methoxy-3-(1-methyl-1H-1,2,4-triazol-5-yl)phenyl)amino)-2-methyl-3H-imidazo[4,5-b]pyridin-5-yl)amino)picolinonitrile] fall in the same range of Kd: 0.5 to 1 nM for the first, 0.5 to 1 nM for the second.

First: COc1c(Nc2cc(Nc3cccc(C#N)n3)nc3[nH]c(C)nc23)cccc1-c1cnn(C)n1 [I-540, 6-((7-((2-methoxy-3-(2-methyl-2H-1,2,3-triazol-4-yl)phenyl)amino)-2-methyl-3H-imidazo[4,5-b]pyridin-5-yl)amino)picolinonitrile]
Second: COc1c(Nc2cc(Nc3cccc(C#N)n3)nc3[nH]c(C)nc23)cccc1-c1nc(C)nn1C [I-542, 6-((7-((3-(1,3-dimethyl-1H-1,2,4-triazol-5-yl)-2-methoxyphenyl)amino)-2-methyl-3H-imidazo[4,5-b]pyridin-5-yl)amino)picolinonitrile]
The Kd of the first is lower: 0.1 to 0.5 nM for the first, 0.5 to 1 nM for the second. The first binds more tightly here.

First: COc1c(Nc2cc(Nc3cccc(C#N)n3)nc3[nH]c(C(F)F)nc23)cccc1-c1nc(C)nn1C [I-541, 6-((2-(difluoromethyl)-7-((3-(1,3-dimethyl-1H-1,2,4-triazol-5-yl)-2-methoxyphenyl)amino)-3H-imidazo[4,5-b]pyridin-5-yl)amino)picolinonitrile]
Second: COc1c(Nc2cc(Nc3cccc(C#N)n3)nc3[nH]c(C)nc23)cccc1-c1nc(C)cs1 [I-543, 6-((7-((2-methoxy-3-(4-methylthiazol-2-yl)phenyl)amino)-2-methyl-3H-imidazo[4,5-b]pyridin-5-yl)amino)picolinonitrile]
The Kd of the first is lower: 0.5 to 1 nM for the first, 1 to 10 nM for the second.

Compared with `C#Cc1cccc(Nc2cc(Nc3ccccc3S(C)(=O)=O)c3nc(C(F)F)[nH]c3n2)n1` [I-546, 2-(difluoromethyl)-N5-(6-ethynylpyridin-2-yl)-N7-(2-(methylsulfonyl)phenyl)-3H-imidazo[4,5-b]pyridine-5,7-diamine], `C#Cc1cccc(Nc2cc(Nc3ccccc3S(C)(=O)=O)c3nc(C)[nH]c3n2)n1` [I-547, N5-(6-ethynylpyridin-2-yl)-2-methyl-N7-(2-(methylsulfonyl)phenyl)-3H-imidazo[4,5-b]pyridine-5,7-diamine] is lower in Kd: 1 to 10 nM for the first, < 0.1 nM for the second.

First: CN=[S@@](C)(=O)c1ccccc1Nc1cc(NC(=O)C2CC2)nc2[nH]c(C)nc12 [I-549, N-(7-((2-(N,S-dimethylsulfonimidoyl)phenyl)amino)-2-methyl-3H-imidazo[4,5-b]pyridin-5-yl)cyclopropanecarboxamide]
Second: Cc1nc2c(Nc3ccc(F)cc3S(C)(=O)=O)cc(Nc3cccc(C#N)n3)nc2[nH]1 [I-553, 6-((7-((4-fluoro-2-(methylsulfonyl)phenyl)amino)-2-methyl-3H-imidazo[4,5-b]pyridin-5-yl)amino)picolinonitrile]
The Kd of the first is higher: 1 to 10 nM for the first, 0.1 to 0.5 nM for the second. The second binds more tightly here.

Reference: patent US10647713B2 (Nimbus Lakshmi, Inc., priority 2016, dated 2020)
